Measurements: paper PMC6131351, “Pharmacological difference between degrader and inhibitor against oncogenic BCR-ABL kinase” (Scientific Reports, 2018)

How the values were obtained:
ABL1 = target: T1, ABL1 (Homo sapiens, UniProt P00519); test: TR-FRET binding assay, ABL1 (BODIPY-dasatinib probe); conditions: concentration required to inhibit the probe binding to ABL by 50%, read-out: Binding affinity IC50 ABL
T1 construct: the His-tagged ABL1 protein (full length, P3049) were from Life Technologies; purchased Life Technologies P3049
T1 sequence (P00519 whole entry): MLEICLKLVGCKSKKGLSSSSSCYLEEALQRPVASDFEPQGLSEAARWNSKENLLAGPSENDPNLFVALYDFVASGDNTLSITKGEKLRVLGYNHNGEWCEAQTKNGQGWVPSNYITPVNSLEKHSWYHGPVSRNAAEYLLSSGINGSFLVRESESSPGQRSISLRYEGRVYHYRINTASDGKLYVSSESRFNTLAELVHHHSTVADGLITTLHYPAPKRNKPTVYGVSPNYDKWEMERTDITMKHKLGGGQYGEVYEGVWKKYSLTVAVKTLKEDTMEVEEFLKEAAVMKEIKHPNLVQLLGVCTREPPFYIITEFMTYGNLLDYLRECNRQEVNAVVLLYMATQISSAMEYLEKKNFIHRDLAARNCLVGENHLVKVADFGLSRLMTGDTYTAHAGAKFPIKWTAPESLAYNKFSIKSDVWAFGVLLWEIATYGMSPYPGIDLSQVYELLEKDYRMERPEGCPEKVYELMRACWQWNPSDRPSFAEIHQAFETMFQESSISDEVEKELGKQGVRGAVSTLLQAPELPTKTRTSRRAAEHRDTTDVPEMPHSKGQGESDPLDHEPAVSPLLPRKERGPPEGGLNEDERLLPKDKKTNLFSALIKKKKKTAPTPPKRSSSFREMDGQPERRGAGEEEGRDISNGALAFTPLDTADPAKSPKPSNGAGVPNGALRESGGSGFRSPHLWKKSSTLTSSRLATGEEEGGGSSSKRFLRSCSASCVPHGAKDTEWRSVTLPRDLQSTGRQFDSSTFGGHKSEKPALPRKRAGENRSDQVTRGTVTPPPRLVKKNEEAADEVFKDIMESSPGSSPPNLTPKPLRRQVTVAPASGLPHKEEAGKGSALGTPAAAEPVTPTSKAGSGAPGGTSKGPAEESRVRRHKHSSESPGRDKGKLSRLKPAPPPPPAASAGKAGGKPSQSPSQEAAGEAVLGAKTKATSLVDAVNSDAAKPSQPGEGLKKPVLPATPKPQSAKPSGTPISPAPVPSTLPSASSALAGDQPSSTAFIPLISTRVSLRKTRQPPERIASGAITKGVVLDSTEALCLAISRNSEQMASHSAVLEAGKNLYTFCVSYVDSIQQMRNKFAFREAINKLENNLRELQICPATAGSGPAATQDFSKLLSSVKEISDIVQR
Experimental: The TR-FRET assay was carried out using 384-well white flat-bottom plates (Greiner Bio-One) and the signal was measured using an EnVision Multilabel Plate Reader (PerkinElmer, Waltham, MA, USA).
(§1) The half maximal inhibitory concentration (IC50) of test compounds was calculated by fitting the data with the logistic equation using GraphPad Prism 5 (GraphPad Software, Inc., La Jolla, CA, USA) or XLfit (IDBS, Guildford, UK).
Before addition to the assay plate, 3-fold concentrations of the His-ABL1 protein, Tb-SA and the biotinylated anti-His antibody were mixed in the assay buffer and incubated for over 1 h at room temperature. Several concentrations of test inhibitors dissolved in the assay buffer were dispensed in the assay plate. […] The plate was incubated for 30 min at room temperature and the TR-FRET signal was measured using the EnVision Multilabel Plate Reader.

BCR-ABL protein = target: T2, BCR-ABL protein (Homo sapiens, UniProt P00519+P11274); test: Washout experiment, BCR-ABL protein level by western blot in K562 cells; format: cell-based; conditions: K562, 50 times IC50 for 12 h, BCR-ABL/β-tubulin
T2 construct: examined for their activity to degrade BCR-ABL in K562 cells for 6 h; BCR (fusion partner, P11274, N-terminal part); endogenous in cells; host or cells: K562
T2 sequence (P11274+P00519 fused): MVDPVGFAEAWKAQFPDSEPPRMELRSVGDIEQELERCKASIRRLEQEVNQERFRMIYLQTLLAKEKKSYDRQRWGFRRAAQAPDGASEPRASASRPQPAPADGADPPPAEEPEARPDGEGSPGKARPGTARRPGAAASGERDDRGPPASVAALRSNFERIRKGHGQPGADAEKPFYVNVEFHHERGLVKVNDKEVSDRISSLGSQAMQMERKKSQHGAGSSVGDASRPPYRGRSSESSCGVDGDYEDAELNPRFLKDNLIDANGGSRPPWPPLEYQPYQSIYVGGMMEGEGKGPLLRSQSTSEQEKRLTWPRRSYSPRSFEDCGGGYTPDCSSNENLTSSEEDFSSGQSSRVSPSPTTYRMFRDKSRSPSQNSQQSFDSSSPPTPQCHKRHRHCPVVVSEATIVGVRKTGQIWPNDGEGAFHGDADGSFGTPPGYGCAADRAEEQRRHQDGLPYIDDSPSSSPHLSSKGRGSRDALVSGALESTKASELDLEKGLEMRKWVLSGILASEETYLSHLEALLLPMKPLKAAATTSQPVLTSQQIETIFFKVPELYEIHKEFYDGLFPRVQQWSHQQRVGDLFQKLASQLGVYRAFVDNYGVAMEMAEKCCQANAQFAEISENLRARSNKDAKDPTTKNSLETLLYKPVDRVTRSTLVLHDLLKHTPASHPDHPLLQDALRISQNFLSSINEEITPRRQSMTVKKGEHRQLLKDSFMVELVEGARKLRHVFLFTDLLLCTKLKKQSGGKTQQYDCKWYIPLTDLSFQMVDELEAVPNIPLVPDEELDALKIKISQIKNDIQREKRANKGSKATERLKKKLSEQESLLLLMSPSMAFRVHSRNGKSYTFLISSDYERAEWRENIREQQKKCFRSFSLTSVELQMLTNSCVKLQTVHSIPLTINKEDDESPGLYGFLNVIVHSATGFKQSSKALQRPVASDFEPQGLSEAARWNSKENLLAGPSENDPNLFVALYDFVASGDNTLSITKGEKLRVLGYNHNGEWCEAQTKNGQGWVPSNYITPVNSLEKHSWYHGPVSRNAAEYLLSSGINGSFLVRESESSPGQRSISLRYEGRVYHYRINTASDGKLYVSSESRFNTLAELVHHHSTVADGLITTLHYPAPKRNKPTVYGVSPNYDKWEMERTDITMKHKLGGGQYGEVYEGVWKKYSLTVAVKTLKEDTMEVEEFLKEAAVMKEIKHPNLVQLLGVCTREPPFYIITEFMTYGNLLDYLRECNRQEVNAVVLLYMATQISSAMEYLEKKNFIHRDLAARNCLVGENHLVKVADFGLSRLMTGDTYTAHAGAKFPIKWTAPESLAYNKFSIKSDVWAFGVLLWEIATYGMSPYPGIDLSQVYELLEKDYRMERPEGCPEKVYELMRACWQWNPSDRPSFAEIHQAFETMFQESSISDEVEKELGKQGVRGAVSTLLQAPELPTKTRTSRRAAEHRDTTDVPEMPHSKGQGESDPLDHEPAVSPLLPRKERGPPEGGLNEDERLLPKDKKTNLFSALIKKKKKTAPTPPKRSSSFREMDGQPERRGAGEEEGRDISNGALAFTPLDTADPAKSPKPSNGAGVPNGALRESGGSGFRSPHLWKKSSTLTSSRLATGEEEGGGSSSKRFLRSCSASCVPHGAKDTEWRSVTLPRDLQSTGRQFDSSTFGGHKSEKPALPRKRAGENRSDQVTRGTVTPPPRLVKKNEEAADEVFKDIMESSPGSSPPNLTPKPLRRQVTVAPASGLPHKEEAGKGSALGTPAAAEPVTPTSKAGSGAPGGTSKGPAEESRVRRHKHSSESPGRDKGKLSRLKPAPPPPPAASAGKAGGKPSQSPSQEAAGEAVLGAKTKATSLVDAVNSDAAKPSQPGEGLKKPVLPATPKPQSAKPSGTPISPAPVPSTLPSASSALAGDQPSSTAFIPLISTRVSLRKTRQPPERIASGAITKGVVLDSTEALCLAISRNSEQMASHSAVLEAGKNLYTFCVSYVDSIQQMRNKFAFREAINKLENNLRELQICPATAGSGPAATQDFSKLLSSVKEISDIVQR
Experimental: (§2) Cells were collected and lysed in a lysis buffer (0.5% Triton X-100, 0.01 M Tris-HCl (pH 7.5), 0.15 M NaCl, Complete Mini protease inhibitor cocktail (Roche Applied Science, Indianapolis, IL, USA) and PhosStop phosphatase inhibitor cocktail (Roche Applied Science)). Protein concentrations were measured by the BCA method (Thermo Fisher Scientific) and an equal amount of protein lysate was separated by SDS-PAGE, transferred to polyvinylidene difluoride membranes (Merck Millipore) and analyzed by western blot using an appropriate antibody. The immunoreactive proteins were visualized using Clarity Western ECL substrate (Bio-Rad, Hercules, CA, USA) and their light emission was quantified with a LAS-3000 lumino-image analyzer (Fuji, Tokyo, Japan).
(§3) Cells were seeded at a concentration of 2 × 10^6 cells per 10-cm tissue culture dish and treated with the indicated compounds for the indicated times. Then, the cells were washed three times to remove the compounds, and incubated in drug-free medium for the indicated times.

MOLT-4 cells = test: WST cell growth inhibition, MOLT-4 (BCR-ABL negative); format: cell-based; conditions: Homo sapiens, MOLT4 cells, 48 h, WST assay, means ± SD (n = 3)
Jurkat cells = test: WST cell growth inhibition, Jurkat (BCR-ABL negative); format: cell-based; conditions: Homo sapiens, 48 h, WST assay, means ± SD (n = 3)
[1] = test system: phosphorylation of BCR-ABL, STAT5 and CrkL; test: Downstream kinase signaling (phosphorylation) by western blot in K562 cells; format: cell-based, Human
Experimental: as §2, with “Japan). The following antibodies were used: anti-cAbl rabbit polyclonal antibody (pAb) (#2862), anti-XIAP rabbit pAb (#2042), anti-phospho-cAbl rabbit pAb (#3009), anti-STAT5 rabbit pAb (#9363), anti-phospho-STAT5 rabbit pAb (#9359), anti-CrkL mouse monoclonal antibody (mAb) (#3182) and anti-phospho-CrkL rabbit pAb (#3181), anti-PARP rabbit pAb (#9532), and anti-cleaved Caspase 3 rabbit pAb (#9664) (Cell Signaling Technology, Danvers, MA, USA); anti-β-tubulin (ab6046) rabbit pAb (Abcam, Cambridge, UK) and anti-GAPDH rabbit pAb (sc-25778 HRP) (Santa Cruz, Dallas, TX, USA); anti-cIAP1 goat pAb (AF8181) (R&D systems).” for “Japan).”
as §3

cIAP2 (BIR3) = target: T3, cIAP2 (BIR3) (Homo sapiens, UniProt Q13489); test: TR-FRET IAP/Smac peptide interaction assay, cIAP2; conditions: FITC-Smac probe, read-out: Binding affinity IC50 cIAP2
T3 construct: cIAP2 (BIR3, Gln238-Ser349) proteins were expressed in E. coli; made in house; host or cells: E. coli
T3 sequence (Q13489 238-349): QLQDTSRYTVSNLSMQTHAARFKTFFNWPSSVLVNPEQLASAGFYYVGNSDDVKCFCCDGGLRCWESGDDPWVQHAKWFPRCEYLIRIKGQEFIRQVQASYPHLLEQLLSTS
Experimental: The TR-FRET assay was carried out using 384-well white flat-bottom plates (Greiner Bio-One) and the signal was measured using an EnVision Multilabel Plate Reader (PerkinElmer, Waltham, MA, USA). The solution in each well was excited with a laser (λ = 337 nm) reflected by a dichroic mirror (D400/D505 (Perkin Elmer) and fluorescence from terbium (Tb) and BODIPY or FITC was detected through two emission filters (CFP 486 (Perkin Elmer) for Tb and Emission 515 (Perkin Elmer) for BODIPY and FITC). The assay buffer used in this study was composed of 50 mM HEPES (pH 7.2–7.5), 10 mM MgCl2, 1 mM EGTA, 0.1 mM DTT and 0.01% (v/v) Brij^(R) 35. All assays were carried out at room temperature in triplicate or quadruplicate formats.
as §1
His-IAP proteins (XIAP, cIAP1 or cIAP2), FITC-Smac, Tb-SA and the biotinylated anti-His antibody (Life Technologies) were mixed in the assay buffer and incubated for over 1 h at room temperature before addition to the assay plate. […] After 1 h incubation at room temperature, the TR-FRET signal was measured using the EnVision Multilabel Plate Reader. […]

[2] = test system: caspase 3 activation and PARP cleavage; test: Caspase activation and PARP cleavage after drug removal in K562 cells; format: cell-based, Human; conditions: K562, 50 times IC50 for 12 h, drug removal for 24 h
Experimental: as §2, with “Japan). The following antibodies were used: anti-cAbl rabbit polyclonal antibody (pAb) (#2862), anti-XIAP rabbit pAb (#2042), anti-phospho-cAbl rabbit pAb (#3009), anti-STAT5 rabbit pAb (#9363), anti-phospho-STAT5 rabbit pAb (#9359), anti-CrkL mouse monoclonal antibody (mAb) (#3182) and anti-phospho-CrkL rabbit pAb (#3181), anti-PARP rabbit pAb (#9532), and anti-cleaved Caspase 3 rabbit pAb (#9664) (Cell Signaling Technology, Danvers, MA, USA); anti-β-tubulin (ab6046) rabbit pAb (Abcam, Cambridge, UK) and anti-GAPDH rabbit pAb (sc-25778 HRP) (Santa Cruz, Dallas, TX, USA); anti-cIAP1 goat pAb (AF8181) (R&D systems).” for “Japan).”
as §3

K562 cells = test: Washout experiment, cell counting of K562 cells; format: cell-based, Human; conditions: washed; for growth of K562 cells after drug removal: 25 or 50 times IC50 for 12 h, drug-free medium for 6 d
Experimental: as §3

[3] = K562, 50 times IC50 for 12 h (time 0)

For CN[C@@H](C)C(=O)N[C@H](C(=O)N1CCC[C@H]1c1nc(C(=O)c2cccc(OCCOCCOCCOCC(=O)N3CCN(c4cc(Nc5ncc(C(=O)Nc6c(C)cccc6Cl)s5)nc(C)n4)CC3)c2)cs1)C1CCCCC1 [DAS-IAP], the IC50 (ABL1) was 0.00054 µM, the “BCR-ABL % of control” value (BCR-ABL protein; time after washout 0 h) was 32 % of control and the “BCR-ABL % of control” value (BCR-ABL protein; time after washout 48 h) was 2 % of control. For the same molecule, the “BCR-ABL % of control” value (BCR-ABL protein; time after washout 72 h) was 2 % of control, the IC50 (MOLT-4 cells) was 1.72 ± 0.0649 µM and the IC50 (Jurkat cells) was 2.87 ± 0.293 µM. The “phosphorylation of BCR-ABL, STAT5 and CrkL” value (shortened to “phosphorylation of BCR-ABL”) [1, 3] was “inhibited”, the “phosphorylated BCR-ABL, STAT5 and CrkL after drug removal” value ([1]; K562, 50 times IC50 for 12 h, 48 and 72 h after drug removal) was “remained significantly diminished” and the “phosphorylation of BCR-ABL” value ([1]; K562 cells, 6 h) was “suppressed”. For the same molecule, the IC50 (cIAP2 (BIR3)) was 0.012 µM, the “caspase 3 activation and PARP cleavage” value [2] was “induced” and the “growth of K562 cells after drug removal” value (K562 cells) was “markedly inhibited the growth”. The “K562 cell number after drug removal” value (K562 cells; 50 times IC50 for 12 h, drug-free medium) was “decreased continuously”.
For CN[C@@H](C)C(=O)N(C)[C@H](C(=O)N1CCC[C@H]1c1nc(C(=O)c2cccc(OCCOCCOCCOCC(=O)N3CCN(c4cc(Nc5ncc(C(=O)Nc6c(C)cccc6Cl)s5)nc(C)n4)CC3)c2)cs1)C1CCCCC1 [DAS-meIAP], the IC50 (ABL1) was under 0.00024 µM, the “BCR-ABL % of control” value (BCR-ABL protein; time after washout 0 h) was 84 % of control and the “BCR-ABL % of control” value (BCR-ABL protein; time after washout 48 h) was 80 % of control. For the same molecule, the “BCR-ABL % of control” value (BCR-ABL protein; time after washout 72 h) was 73 % of control, the IC50 (MOLT-4 cells) was 1.9 ± 0.108 µM and the IC50 (Jurkat cells) was 2.44 ± 0.31 µM. The “phosphorylation of BCR-ABL” value [1, 3] was “inhibited”, the “phosphorylation of BCR-ABL” value ([1]; K562 cells, 6 h) was “suppressed” and the IC50 (cIAP2 (BIR3)) was over 1 µM. For the same molecule, the “caspase 3 activation and PARP cleavage” value [2] was “not” and the “growth of K562 cells after drug removal” value (K562 cells) was “slightly delayed the growth”.
